# Reference: patent US8652997B2, “Active compound combinations” (Bayer CropScience AG, priority 2009, dated 2014)
# Like-named read-outs stand apart in the source and are kept apart here.
# Columns and labels:
# Format in all cases: in vivo
# Septoria tritici = test: Septoria tritici-test (wheat)/preventive; conditions: preventive spray, evaluated 21 days after inoculation
# Experimental: Septoria tritici-Test (Wheat)/Preventive
# (§1) Solvent: 49 parts by weight of n,n-dimethylacetamid
# (§2) Emulsifier: 1 part by weight of alkylaryl polyglycol ether
# (§3) To produce a suitable preparation of active compound, 1 part by weight of active compound or active compound combination is mixed with the stated amounts of solvent and emulsifier, and the concentrate is diluted with water to the desired concentration.
# (§4) To test for preventive activity, young plants are sprayed with the preparation of active compound or active compound combination at the stated rate of application.
# After the spray coating has been dried, the plants are sprayed with a spore suspension of Septoria tritici. The plants remain for 48 hours in an incubation cabinet at approximately 20° C. and a relative atmospheric humidity of approximately 100% and afterwards for 60 hours at approximately 15° C. in a translucent incubation cabinet at a relative atmospheric humidity of approximately 100%.
# The plants are placed in the greenhouse at a temperature of approximately 15° C. and a relative atmospheric humidity of approximately 80%.
# The test is evaluated 21 days after the inoculation. 0% means an efficacy which corresponds to that of the control, while an efficacy of 100% means that no disease is observed.
# [1] = system: larvae of the diamondback moth (Plutella xylostella); test: Plutella xylostella test (sprayed cabbage leaves)
# Experimental: (§5) Solvent: 7 parts by weight of dimethylformamide
# (§6) Emulsifier: 2 parts by weight of alkylaryl polyglycolether
# (§7) To produce a suitable preparation of active compound, 1 part by weight of active compound is mixed with the stated amount of solvent and emulsifier, and the concentrate is diluted with emulsifier-containing water to the desired concentration.
# Cabbage leaves (Brassica oleracea) are treated by being sprayed into the preparation of the active compound of the desired concentration and are infested with larvae of the diamondback moth (Plutella xylostella) as long as the leaves are still moist.
# After the specified period of time, the mortality in % is determined. 100% means that all the caterpillars have been killed; 0% means that none of the caterpillars have been killed.
# [2] = system: Fusarium nivale (var. majus); test: Fusarium nivale (var. majus)-test (wheat)/preventive; conditions: preventive spray, evaluated 5 days after inoculation
# Experimental: Fusarium nivale (Var. majus)-Test (Wheat)/Preventive
# as §1, §2, §3, §4
# After the spray coating has been dried, the plants are slightly injured by using a sandblast and afterwards they are sprayed with a conidia suspension of Fusarium nivale (var. majus).
# The plants are placed in the greenhouse under a translucent incubation cabinet at a temperature of approximately 10° C. and a relative atmospheric humidity of approximately 100%.
# The test is evaluated 5 days after the inoculation. 0% means an efficacy which corresponds to that of the control, while an efficacy of 100% means that no disease is observed.
# [3] = system: two spotted spidermites (Tetranychus urticae); test: Tetranychus urticae test (sprayed French bean leaves)
# Experimental: as §5, §6, §7
# French bean leaves (Phaseolus vulgaris) which are heavily infested with all stages of the two spotted spidermites (Tetranychus urticae) are treated by being sprayed into the preparation of the active compound of the desired concentration.
# After the specified period of time, the mortality in % is determined. 100% means that all the spider mites have been killed; 0% means that none of the spider mites have been killed.
# [4] = 48 h, read-out: Mortality in % after 2d
# [5] = 48 h, after 2 d, read-out: Mortality in % after 2d
# [6] = 96 h, after 4 d, read-out: Mortality in % after 4d
# [7] = 96 h, read-out: Mortality in % after 4d
smiles,measurement,setting,value
"O=[N+]([O-])/N=C1\NCCN1Cc1ccc(Cl)nc1 [Imidacloprid, imidacloprid]",Efficacy in % found,Septoria tritici; 500 g/ha,22%
same,Efficacy in % found,Septoria tritici; 1000 g/ha,22%
same,mortality at 20 ppm,[1]; [4],0%
same,mortality at 100 ppm,[1]; [4],20%
"N#Cc1ccccc1NC(=O)c1snc(Cl)c1Cl [Isotianil, 3,4-dichloro-N-(2-cyanophenyl)-5-isothiazolecarboxamide]",Efficacy in % found,Septoria tritici; 500 g/ha,33%
same,Efficacy in % found,Septoria tritici; 1000 g/ha,33%
same,mortality at 200 ppm,[1]; [5],5%
same,mortality at 200 ppm,[1]; [6],5%
same,Efficacy in % found,[2]; 1000 g/ha,25%
same,mortality at 200 ppm,[3]; [5],0%
same,mortality at 200 ppm,[3]; [6],0%
"CCC(C)(C)C(=O)OC1=C(c2ccc(Cl)cc2Cl)C(=O)OC12CCCCC2 [Spirodiclofen, spirodiclofen]",Efficacy in % found,Septoria tritici; 250 g/ha,22%
same,mortality at 20 ppm,[1]; [7],15%
same,Efficacy in % found,[2]; 250 g/ha,13%
same,mortality at 20 ppm,[3]; [4],30%
"Cc1cc(C)c(C2=C(OC(=O)CC(C)(C)C)C3(CCCC3)OC2=O)c(C)c1 [Spiromesifen, spiromesifen]",mortality at 500 ppm,[1]; [7],25%
same,Efficacy in % found,[2]; 250 g/ha,38%
same,mortality at 100 ppm,[3]; [7],75%
"CCOC(=O)OC1=C(c2cc(C)ccc2C)C(=O)N[C@]12CC[C@@H](OC)CC2 [Spirotetramat, spirotetramat]",Efficacy in % found,Septoria tritici; 250 g/ha,22%
same,mortality at 20 ppm,[1]; [4],20%
same,mortality at 20 ppm,[3]; [7],55%
